Here are results for 46 compounds from US20230009608A1, “GRK2 INHIBITORS AND USES THEREOF” (Cygnal Therapeutics, Inc., priority 2020, published 2023).

By IC50 is commonly meant the midpoint of a concentration-inhibition curve.

One experiment concerns the target T1, GRK2 (Homo sapiens, UniProt P25098).
T1 construct: purchased SignalChem A14-10G
T1 sequence (P25098 1-689): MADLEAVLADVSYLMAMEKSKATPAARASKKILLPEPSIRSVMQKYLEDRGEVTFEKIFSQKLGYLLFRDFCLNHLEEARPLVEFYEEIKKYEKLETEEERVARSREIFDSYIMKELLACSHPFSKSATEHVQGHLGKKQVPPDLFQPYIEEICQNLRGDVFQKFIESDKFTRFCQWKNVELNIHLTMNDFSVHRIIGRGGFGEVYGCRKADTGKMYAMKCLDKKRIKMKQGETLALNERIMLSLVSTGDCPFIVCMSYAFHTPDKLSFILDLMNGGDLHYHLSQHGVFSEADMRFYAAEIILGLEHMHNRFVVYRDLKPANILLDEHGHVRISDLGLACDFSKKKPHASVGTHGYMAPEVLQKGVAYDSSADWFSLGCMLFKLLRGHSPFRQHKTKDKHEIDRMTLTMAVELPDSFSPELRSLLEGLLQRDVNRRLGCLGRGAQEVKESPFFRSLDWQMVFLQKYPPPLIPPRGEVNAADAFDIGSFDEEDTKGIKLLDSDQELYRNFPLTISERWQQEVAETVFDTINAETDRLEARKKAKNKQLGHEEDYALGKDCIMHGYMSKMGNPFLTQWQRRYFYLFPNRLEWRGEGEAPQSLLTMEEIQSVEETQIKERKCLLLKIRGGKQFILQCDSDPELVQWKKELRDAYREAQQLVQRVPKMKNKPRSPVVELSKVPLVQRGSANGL
Briefly: GRK2 Inhibition Assay (TR-FRET, Example 7). The experiment is classed as biochemical. The note with it: for IC50: Enzyme Assay B, TR-FRET (Example 7), read-out: B: Enzymatic GRK2: IC50 (nM) (Example 7). The procedure:
Enzyme GRK2 (1 nM final concentration) was diluted in 25 mMv HEPES, 10 mM MgCl2, 2 mM DTT, 0.01% Tween-20, and 1 mM EGTA. Then the GRK2 mixture was added into ProxiPlate-384 white plate and pre-incubated for 30 min with test compounds at room temperature. ATP (7 μM final concentration) and Ulight TopoIIα (50 nM final concentration) were added into the assay plate to initiate the reaction and the mixture was incubated at room temperature for 90 min. Then, Eu anti-TopoIIα (0.12 nM final concentration), BSA (0.01% final concentration), and EDTA (11 mMv final concentration) in LANCE assay buffer were added into each well. After 60 min incubation time at room temperature, TR-FRET signal was measured by EnVision plate reader.

Experiment [1] has as its system PAXF1657 control empty vector cell line. Briefly: 7-day proliferation assay, PAXF1657 control empty vector cell line (Example 9). The experiment is classed as cell-based. The note with it: 168 h; Cell Line: PAXF1657 empty vector (EV) cell line; 7-day; read-out: C: 7-day proliferation assay: IC50 GeoMean. The procedure, abridged: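 Seven-day growth in PAXF1657 lines engineered for GRK2 overexpression or knockout, measured by CellTiter-Glo; compounds tested at 30 μM-0.0002 μM final and replenished once at day 3.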

pIC50: −log10 of the molar value. Read-outs that look alike come from different tables or passages of the source.

As to `CCCn1c(CNc2cncc(C(=O)NCc3ccccc3C(F)(F)F)c2)nnc1-c1ccncn1`, on GRK2, the IC50 is 30 nM. The pIC50 in experiment [1] is less than 4.52.
Consider `COc1ncccc1CNC(=O)c1cccc(NCc2nnc(-c3ccncc3)n2C)c1`, for which the IC50 on GRK2 is 15 nM. Moreover, in experiment [1], the pIC50 is 6.09.
For `O=C(NCc1cccc2c1OCC2)c1cccc(NCc2nnc(-c3ccncc3)[nH]2)c1`, in that order: 2.9 nM and less than 4.52.
The corresponding values for `O=C(NCc1cccc(F)c1)c1cccc(NCc2nnc(-c3ccncc3)[nH]2)c1` are 6.1 nM and 4.84.
The corresponding values for `O=C(N[C@H]1CCOc2ccccc21)c1cccc(NCc2nnc(-c3ccncc3)[nH]2)c1` are 2.1 nM and less than 5.75.
As for `O=C(NCc1cccnc1C(F)(F)F)c1cccc(NCc2nnc(-c3ccncc3)[nH]2)c1`, at GRK2, the concentration for half-maximal inhibition (IC50) amounted to 13 nM. In addition, the pIC50 in experiment [1] was less than 4.52.
Turning to `COc1ccc(CNC(=O)c2cccc(NCc3nnc(-c4ccncc4)[nH]3)c2)c(F)c1`, the IC50 on GRK2 turned out to be 15 nM. Further, in experiment [1], the pIC50 was 4.73.
Turning to `COc1cccc(OC)c1CNC(=O)c1cccc(NCc2nnc(-c3ccncc3)[nH]2)c1`, the 50% inhibitory concentration (IC50) at GRK2 came to 1.4 nM. In addition, the pIC50 in experiment [1] is 6.01.
Consider `CCCn1c(CNc2cccc(C(=O)NCc3cccc4c3OCC4)c2)nnc1-c1ccncn1`, for which the IC50 on GRK2 is 2 nM. Moreover, the pIC50 in experiment [1] was less than 4.52.
Take `CCCn1c(CNc2cccc(C(=O)NCc3cccc(F)c3)c2)nnc1-c1ccncn1`: on GRK2, the IC50 is 5.3 nM. Besides, the pIC50 in experiment [1] is 4.72.
With `CCCn1c(CNc2cccc(C(=O)N[C@H]3CCOc4ccccc43)c2)nnc1-c1ccncn1`, the IC50 on GRK2 was 2.3 nM. The pIC50 in experiment [1] was less than 4.52.
`CCCn1c(CNc2cccc(C(=O)NCc3cccnc3C(F)(F)F)c2)nnc1-c1ccncn1`: the half-maximal inhibitory concentration (IC50) on GRK2 is 2.6 nM. For the same compound, in experiment [1], the pIC50 is 6.18.
Consider `CCCn1c(CNc2cccc(C(=O)NCc3ccc(OC)cc3F)c2)nnc1-c1ccncn1`, for which the IC50 at GRK2 was found to be 2.1 nM. The pIC50 in experiment [1] is less than 4.52.
The corresponding values for `CCCn1c(CNc2cccc(C(=O)NCc3c(OC)cccc3OC)c2)nnc1-c1ccncn1` are 3.1 nM and less than 4.52.
Regarding `CCCn1c(CNc2cccc(C(=O)NCc3ccccc3OCC)c2)nnc1-c1ccncn1`, on GRK2, the IC50 amounted to 8.2 nM. Also, in experiment [1], the pIC50 was less than 4.52.
For the compound `CCCn1c(CNc2cccc(C(=O)NC3(c4ccccc4)CCOCC3)c2)nnc1-c1ccncn1`, at GRK2, the IC50 stood at 22 nM. Moreover, in experiment [1], the pIC50 is 5.03.
On to `CCCn1c(CNc2cccc(C(=O)NCc3cccnc3OC)c2)nnc1-c1ccncn1`, for which the half-inhibitory concentration (IC50) on GRK2 came to 3.8 nM. For the same compound, the pIC50 in experiment [1] was less than 4.52.
As for `O=C(NCc1cccc2c1OCC2)c1cccc(NCc2nnc3n2CCOc2cnccc2-3)c1`, the IC50 at GRK2 was 2.4 nM. In addition, the pIC50 in experiment [1] is 5.52.
In the case of `O=C(NCc1cccc(F)c1)c1cccc(NCc2nnc3n2CCOc2cnccc2-3)c1`, the IC50 on GRK2 came out at 3.7 nM. Further, the pIC50 in experiment [1] was 5.15.
Regarding `O=C(N[C@H]1CCOc2ccccc21)c1cccc(NCc2nnc3n2CCOc2cnccc2-3)c1`, the IC50 at GRK2 was found to be 2.6 nM. Moreover, the pIC50 in experiment [1] is less than 4.52.
As for `O=C(NCc1cccnc1C(F)(F)F)c1cccc(NCc2nnc3n2CCOc2cnccc2-3)c1`, on GRK2, the IC50 was determined as 3.5 nM. In addition, in experiment [1], the pIC50 is 5.18.
As to `COc1ccc(CNC(=O)c2cccc(NCc3nnc4n3CCOc3cnccc3-4)c2)c(F)c1`, the IC50 on GRK2 was found to be 1.6 nM. For the same compound, the pIC50 in experiment [1] is less than 4.52.
For the compound `COc1cccc(OC)c1CNC(=O)c1cccc(NCc2nnc3n2CCOc2cnccc2-3)c1`, the IC50 on GRK2 was 6.7 nM. Also, in experiment [1], the pIC50 is less than 4.52.
The corresponding values for `CCOc1ccccc1CNC(=O)c1cccc(NCc2nnc3n2CCOc2cnccc2-3)c1` are 9.1 nM and 5.63.
As for `O=C(NC1(c2ccccc2)CCOCC1)c1cccc(NCc2nnc3n2CCOc2cnccc2-3)c1`, the IC50 at GRK2 worked out at 39 nM. Besides, the pIC50 in experiment [1] is 4.69.
For the compound `COc1ncccc1CNC(=O)c1cccc(NCc2nnc3n2CCOc2cnccc2-3)c1`, at GRK2, the IC50 stood at 7.5 nM. Also, in experiment [1], the pIC50 is less than 4.52.
Turning to `O=C(NCc1ccccc1OS(=O)(=O)F)c1cccc(NCc2nnc(-c3ccncc3)n2CCCO)c1`, the pIC50 is 7.77 against GRK2 and less than 4.52 in experiment [1].
Take `O=C(NCc1cccc(OS(=O)(=O)F)c1)c1cccc(NCc2nnc(-c3ccncc3)n2CCCO)c1`: the figures for the pIC50 (against GRK2; in experiment [1]) were 7.30 and less than 4.52, respectively.
As to `Cn1c(CNc2cccc(C(=O)N[C@H]3CCOc4cc(Cl)ccc43)c2)nnc1-c1ccncn1`, the IC50 on GRK2 amounted to 18 nM. Besides, in experiment [1], the pIC50 was less than 4.53.
Consider `Cc1ccc2c(c1)[C@H](NC(=O)c1cccc(NCc3nnc(-c4ccncn4)n3C)c1)CC(C)(C)O2`, for which the IC50 at GRK2 is 48 nM. Further, in experiment [1], the pIC50 was less than 4.52.
For `Cc1ccc2c(c1)[C@@H](NC(=O)c1cccc(NCc3nnc(-c4ccncn4)n3C)c1)CC(C)(C)O2`, in that order: 240 nM and less than 4.52.
For `Cn1c(CNc2cccc(C(=O)N[C@@H]3CCOc4ccc(Br)cc43)c2)nnc1-c1ccncn1`, in that order: 510 nM and less than 4.52.
The corresponding values for `Cn1c(CNc2cccc(C(=O)N[C@H]3CCOc4ccc(Br)cc43)c2)nnc1-c1ccncn1` are 2.6 nM and 7.37.
As to `Cn1c(CNc2cccc(C(=O)N[C@@H]3CCOc4ccc(Cl)cc43)c2)nnc1-c1ccncn1`, at GRK2, the IC50 was 2.9 nM. Also, the pIC50 in experiment [1] was 7.47.
Regarding `Cn1c(CNc2cccc(C(=O)N[C@H]3CCOc4ccc(Cl)cc43)c2)nnc1-c1ccncn1`, at GRK2, the concentration for half-maximal inhibition (IC50) came to 120 nM. In addition, the pIC50 in experiment [1] was less than 4.52.
Turning to `Cn1c(CNc2cccc(C(=O)N[C@@H]3CCOc4c3ccc(F)c4F)c2)nnc1-c1ccncn1`, the IC50 on GRK2 came out at 3.3 nM. Besides, in experiment [1], the pIC50 is 6.75.
For the compound `Cn1c(CNc2cccc(C(=O)N[C@H]3CCOc4c3ccc(F)c4F)c2)nnc1-c1ccncn1`, the IC50 at GRK2 turned out to be 1500 nM. The pIC50 in experiment [1] is less than 4.52.
For `Cn1c(CNc2cccc(C(=O)N[C@@H]3CCOc4cc(F)ccc43)c2)nnc1-c1ccncn1`, the IC50 on GRK2 was 1900 nM. The pIC50 in experiment [1] is 6.77.
With `Cn1c(CNc2cccc(C(=O)N[C@H]3CCOc4cc(F)ccc43)c2)nnc1-c1ccncn1`, on GRK2, the IC50 is 6.4 nM. Besides, the pIC50 in experiment [1] is less than 4.52.
With `Cn1c(CNc2cccc(C(=O)N[C@@H]3CCOc4ccc(F)cc43)c2)nnc1-c1ccncn1`, at GRK2, the IC50 was 2 nM. Further, the pIC50 in experiment [1] was 7.02.
For `Cn1c(CNc2cccc(C(=O)N[C@H]3CCOc4ccc(F)cc43)c2)nnc1-c1ccncn1`, in that order: 24 nM and less than 4.52.
As to `Cn1c(CNc2cccc(C(=O)N[C@@H]3CC(C)(C)Oc4ccccc43)c2)nnc1-c1ccncn1`, the IC50 on GRK2 stood at 45 nM. The pIC50 in experiment [1] is 5.04.
With `Cn1c(CNc2cccc(C(=O)N[C@H]3CC(C)(C)Oc4ccccc43)c2)nnc1-c1ccncn1`, on GRK2, the IC50 turned out to be 30 nM. In addition, in experiment [1], the pIC50 was less than 4.52.
Consider `Cn1c(CNc2cccc(C(=O)N[C@@H]3CCOc4c3cccc4C(F)(F)F)c2)nnc1-c1ccncn1`, for which the IC50 on GRK2 turned out to be 3.8 nM. Further, in experiment [1], the pIC50 is less than 6.01.
With `Cn1c(CNc2cccc(C(=O)N[C@H]3CCOc4c3cccc4C(F)(F)F)c2)nnc1-c1ccncn1`, the IC50 on GRK2 amounted to 9.7 nM. The pIC50 in experiment [1] was less than 4.52.
As to `Cn1c(CNc2cccc(C(=O)N[C@@H]3CCOc4cc(C(F)(F)F)ccc43)c2)nnc1-c1ccncn1`, the IC50 on GRK2 turned out to be 56 nM. Besides, the pIC50 in experiment [1] is 7.03.
